# Reference: patent US10098878B2, “HIF-2α inhibitors for treating iron overload disorders” (The Board of Regents of the University of Texas System, priority 2014, dated 2018)
# Biological target: T1, HIF-2α HIS TAG-PASB Domain (Homo sapiens, UniProt Q99814)
# T1 construct: 100 nM HIF-2α HIS TAG-PASB Domain
# Assay: HIF-2α Scintillation Proximity Assay (SPA)
# Format: binding
# Conditions: 150 nM Compound 211 probe, 100 nM HIF-2α HIS TAG-PASB Domain; read-out: SPA IC50
# Method: The total assay volume was about 100 μL in the following configuration: 2 μL compound in 100% DMSO, 88 μL buffer with protein and probe and 10 μL of SPA beads. […] The percent inhibition was determined and IC50 values were calculated using the Dotmatics system based on the following equation: % inhibition=[(high control−sample)/(high control−low control)]×100.
# T1 sequence (Q99814 240-350 limits assumed): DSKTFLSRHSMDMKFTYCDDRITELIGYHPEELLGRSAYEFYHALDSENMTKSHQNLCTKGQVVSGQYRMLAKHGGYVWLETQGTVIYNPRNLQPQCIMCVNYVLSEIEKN
row,IC50,SMILES
1,2.2 µM,"CC(C)(C)OC(=O)N[C@H]1C[C@@H](O)c2c(S(=O)(=O)C(F)(F)F)ccc(Oc3cc(F)cc(C#N)c3)c21 (relative stereo) [Compound 42, tert-butyl(cis-7-(3-cyano-5-fluorophenoxy)-3-hydroxy-4-((trifluoromethyl)sulfonyl)-2,3-dihydro-1H-inden-1-yl)carbamate]"
2,0.13 µM,"N#CN=S(=O)(CF)c1ccc(Oc2cc(F)cc(C#N)c2)c2c1[C@H](O)[C@H](F)C2 (single isomer, unassigned) [Compound 41]"
3,7.2 µM,"N#CN=S(=O)(CF)c1ccc(Oc2cc(F)cc(C#N)c2)c2c1[C@H](O)CC2 (single isomer, unassigned) [Compound 46]"
4,1.4 µM,"N#CN=S(=O)(CF)c1ccc(Oc2cc(F)cc(C#N)c2)c2c1[C@H](O)CC2 (single isomer, unassigned) [Compound 47]"
5,0.024 µM,"N#CN=S(=O)(CF)c1ccc(Oc2cc(F)cc(C#N)c2)c2c1[C@H](O)C(F)(F)C2 (single isomer, unassigned) [Compound 50]"
6,12.4 µM,"N#CN=S(=O)(c1ccc(Oc2cc(F)cc(C#N)c2)c2c1[C@H](O)[C@H](F)C2)C(F)F (single isomer, unassigned) [Compound 61]"
7,16.1 µM,"N#CN=S(=O)(c1ccc(Oc2cc(F)cc(C#N)c2)c2c1[C@H](O)[C@H](F)C2)C(F)F (single isomer, unassigned) [Compound 63]"
8,0.068 µM,"C=CCN=S(=O)(c1ccc(Oc2cc(F)cc(C#N)c2)c2c1[C@H](O)C(F)(F)C2)C(F)(F)F (single isomer, unassigned) [Compound 72]"
9,2.4 µM,"CS(=O)(=NC#N)c1ccc(Oc2cc(F)cc(C#N)c2)c2c1[C@H](O)C(F)(F)[C@H]2F (single isomer, unassigned) [Compound 82]"
10,1.57 µM,"CS(=O)(=NC#N)c1ccc(Oc2cc(F)cc(C#N)c2)c2c1[C@@H](O)C(F)(F)[C@@H]2F (single isomer, unassigned) [Compound 84]"
11,9.9 µM,"CS(=O)(=NC#N)c1ccc(Oc2cc(F)cc(C#N)c2)c2c1[C@@H](O)C(F)(F)[C@@H]2F (single isomer, unassigned) [Compound 86]"
12,0.059 µM,"N=S1(=O)c2ccc(Oc3cc(F)cc(F)c3)c(C(F)F)c2C(O)C1(F)F (single isomer, unassigned) [Compound 163, 4-(difluoromethyl)-5-(3,5-difluorophenoxy)-2,2-difluoro-3-hydroxy-1-imino-2,3-dihydro-1H-1λ^4-benzo[b]thiophene 1-oxide]"
13,4.9 µM,"O=S(=O)(c1ccc(Oc2ccc3[nH]ncc3c2)c2c1C(O)C(F)(F)C2)C(F)(F)F (centres unmarked) [Compound 19, 4-((1H-Indazol-5-yl)oxy)-2,2-difluoro-7-((trifluoromethyl)sulfonyl)-2,3-dihydro-1H-inden-1-ol]"
14,3.39 µM,"C=C1CC(O)c2c(S(C)(=O)=O)ccc(Oc3cc(F)cc(Cl)c3)c21 (centres unmarked) [Compound 44, 4-(3-chloro-5-fluorophenoxy)-3-methylene-7-(methylsulfonyl)-2,3-dihydro-1H-inden-1-ol]"
15,0.73 µM,"O=S(=O)(c1ccc(Oc2cc(F)cc(Cl)c2)c2c1[C@H](O)C[C@@H]2CO)C(F)(F)F [Compound 45, (1R,3S)-4-(3-chloro-5-fluorophenoxy)-3-(hydroxymethyl)-7-((trifluoromethyl)sulfonyl)-2,3-dihydro-1H-inden-1-ol]"
16,5.6 µM,"CS(=O)(=O)N=S(=O)(CF)c1ccc(Oc2cc(F)cc(C#N)c2)c2c1[C@H](O)C(F)(F)C2 (stereo partly drawn) [Compound 48, N—(((S)-7-(3-cyano-5-fluorophenoxy)-2,2-difluoro-3-hydroxy-2,3-dihydro-1H-inden-4-yl)(fluoromethyl)(oxo)-λ^6-sulfanylidene)methanesulfonamide]"
17,16.1 µM,"C[C@]1(F)Cc2c(Oc3cc(F)cc(C#N)c3)ccc(S(C)(=O)=O)c2[C@@H]1O [Compound 62, 3-fluoro-5-(((1S,2S)-2-fluoro-1-hydroxy-2-methyl-7-(methylsulfonyl)-2,3-dihydro-1H-inden-4-yl)oxy)benzonitrile]"
18,8.7 µM,"CS(=O)(=O)c1ccc(Oc2cc(F)cc(C#N)c2)c2c1[C@H](O)C(F)(F)[C@H]2O [Compound 75, 3-[(1S,3S)-2,2-difluoro-1,3-dihydroxy-7-methylsulfonyl-indan-4-yl]oxy-5-fluoro-benzonitrile]"

row,IC50,SMILES
1,5.3 µM,"CS(=O)(=O)c1ccc(Oc2cncc(Br)c2)c2c1C(=O)C(F)(F)C2 [Compound 87, 4-((5-Bromopyridin-3-yl)oxy)-2,2-difluoro-7-(methylsulfonyl)-2,3-dihydro-1H-inden-1-one]"
2,1.28 µM,"CS(=O)(=O)c1ccc(Oc2cncc(Br)c2)c2c1[C@H](O)[C@H](F)C2 [Compound 90, (1S,2R)-4-((5-Bromopyridin-3-yl)oxy)-2-fluoro-7-(methylsulfonyl)-2,3-dihydro-1H-inden-1-ol]"
3,2.1 µM,"CS(=O)(=O)c1ccc(Oc2cncc(F)c2)c2c1[C@H](O)C(F)(F)[C@H]2F [Compound 94, (1S,3S)-2,2,3-trifluoro-4-((5-fluoropyridin-3-yl)oxy)-7-(methylsulfonyl)-2,3-dihydro-1H-inden-1-ol]"
4,2.3 µM,"CS(=O)(=O)c1ccc(Oc2cncc(Cl)c2)c2c1[C@H](O)C(F)(F)[C@H]2F [Compound 96, (1S,3S)-4-((5-chloropyridin-3-yl)oxy)-2,2,3-trifluoro-7-(methylsulfonyl)-2,3-dihydro-1H-inden-1-ol]"
5,3.7 µM,"N#Cc1cc(F)cc(Oc2ccc(S(N)(=O)=O)c3c2[C@@H](O)C(F)(F)[C@H]3O)c1 [Compound 101, (1R,3S)-7-(3-cyano-5-fluoro-phenoxy)-2,2-difluoro-1,3-dihydroxy-indane-4-sulfonamide]"
6,23.9 µM,"CS(=O)(=O)c1ccc(Oc2cncc(C#N)c2)c2c1[C@H](O)C(F)(F)[C@H]2F [Compound 107, 5-(((1S,3S)-2,2,3-trifluoro-1-hydroxy-7-(methylsulfonyl)-2,3-dihydro-1H-inden-4-yl)oxy)nicotinonitrile]"
7,2.2 µM,"N#Cc1cncc(Oc2ccc(S(=O)(=O)CF)c3c2[C@H](F)C(F)(F)[C@H]3O)c1 [Compound 109, 5-(((1S,3S)-2,2,3-trifluoro-7-((fluoromethyl)sulfonyl)-1-hydroxy-2,3-dihydro-1H-inden-4-yl)oxy)nicotinonitrile]"
8,4.4 µM,"O=S1(=O)CCc2c1ccc(Oc1cc(F)cc(Cl)c1)c2Br [Compound 114, 4-Bromo-5-(3-chloro-5-fluorophenoxy)-2,3-dihydrobenzo[b]thiophene 1,1-dioxide]"
9,4.9 µM,"N#Cc1c(Oc2cc(F)cc(Cl)c2)ccc2c1CCS2(=O)=O [Compound 115, 5-(3-Chloro-5-fluorophenoxy)-2,3-dihydrobenzo[b]thiophene-4-carbonitrile 1,1-dioxide]"
10,1.4 µM,"O=C1c2c(ccc(Oc3cc(F)cc(Cl)c3)c2Br)S(=O)(=O)C1(F)F [Compound 118, 4-Bromo-5-(3-chloro-5-fluorophenoxy)-2,2-difluorobenzo[b]thiophen-3(2H)-one 1,1-dioxide]"
11,1.5 µM,"NC1c2c(ccc(Oc3cc(F)cc(F)c3)c2C(F)F)S(=O)(=O)C1F (centres unmarked) [Compound 130, 3-amino-4-(difluoromethyl)-5-(3,5-difluorophenoxy)-2-fluoro-2,3-dihydrobenzo[b]thiophene 1,1-dioxide]"
12,5.8 µM,"N#Cc1cc(F)cc(Oc2ccc3c(c2C(F)F)C(=N)C(F)S3(=O)=O)c1 (centres unmarked) [Compound 137, 3-((4-(difluoromethyl)-2-fluoro-3-imino-1,1-dioxido-2,3-dihydrobenzo[b]thiophen-5-yl)oxy)-5-fluorobenzonitrile]"
13,2.89 µM,"COCCNC1c2c(ccc(Oc3cc(F)cc(C#N)c3)c2C(F)F)S(=O)(=O)C1(F)F (centres unmarked) [Compound 146, 3-((4-(Difluoromethyl)-2,2-difluoro-3-((2-methoxyethyl)amino)-1,1-dioxido-2,3-dihydrobenzo[b]thiophen-5-yl)oxy)-5-fluorobenzonitrile]"
14,13.4 µM,"N#Cc1cc(F)cc(Oc2ccc3c(c2C(F)F)[C@H](N)C(F)(F)S3(=O)=O)c1 [Compound 148, (S)-3-((3-Amino-4-(difluoromethyl)-2,2-difluoro-1,1-dioxido-2,3-dihydrobenzo[b]thiophen-5-yl)oxy)-5-fluorobenzonitrile]"
15,18.7 µM,"Cc1cc(C#N)cc(Oc2ccc3c(c2C(F)F)C(=O)C(F)(F)S3(=O)=O)c1 [Compound 155, 3-((4-(Difluoromethyl)-2,2-difluoro-1,1-dioxido-3-oxo-2,3-dihydrobenzo[b]thiophen-5-yl)oxy)-5-methylbenzonitrile]"
16,9.7 µM,"N#Cc1cc(F)cc(Oc2ccc3c(c2Br)C(=O)C(F)(F)S3(=O)=O)c1 [Compound 157, 3-((4-Bromo-2,2-difluoro-1,1-dioxido-3-oxo-2,3-dihydrobenzo[b]thiophen-5-yl)oxy)-5-fluorobenzonitrile]"
17,17.4 µM,"N#CN=S1(=O)CC(O)c2c1ccc(Oc1cc(F)cc(F)c1)c2C(F)F (centres unmarked) [Compound 159, N-(4-(difluoromethyl)-5-(3,5-difluorophenoxy)-3-hydroxy-1-oxido-2,3-dihydro-1λ^4-benzo[b]thiophen-1-ylidene)cyanamide]"
18,14.2 µM,"N=S1(=O)CC(O)c2c1ccc(Oc1cc(F)cc(F)c1)c2C(F)F (centres unmarked) [Compound 160, 4-(Difluoromethyl)-5-(3,5-difluorophenoxy)-3-hydroxy-1-imino-2,3-dihydro-1H-1λ^4-benzo[b]thiophene 1-oxide]"

row,SMILES,IC50
1,"CS(=O)(=O)c1ccc(Oc2cc(F)cc(C#N)c2)c2c1[C@H](O)CC2(F)F [Compound 52, 3-[(1R)-3,3-difluoro-1-hydroxy-7-methylsulfonyl-indan-4-yl]oxy-5-fluoro-benzonitrile]",6.5 µM

# Same assay, conditions: SPA IC50, 150 nM Compound 211 probe, 100 nM HIF-2α HIS TAG-PASB Domain
row,IC50,SMILES
1,1.88 µM,"O=S1(=O)c2ccc(Oc3cc(F)cc(Cl)c3)cc2C(O)C1(F)F (centres unmarked) [Compound 126, 5-(3-Chloro-5-fluorophenoxy)-2,2-difluoro-3-hydroxy-2,3-dihydrobenzo[b]thiophene 1,1-dioxide]"
